Data on eleven molecules can be found in ChEMBL document CHEMBL1201862, “PubChem BioAssay data set” (2004).

Common to all, as to assay: NCI anticancer screen, dose series, 48 h
In assay [1] the test system is CCRF-CEM.
Assay [2] concerns DU-145.
Assay [3] relates to HOP-92.
For assay [4], the system named is KM12.
The test system of assay [5] is MDA-MB-231.
Assay [6] deals with NCI/ADR-RES.
For assay [7], the system named is OVCAR-5.
Assay [8] concerns RXF 393.
Assay [9] concerns SF-268.
Assay [10] deals with SF-539.
Assay [11] has as its system SK-MEL-5.
The subject of assay [12] is SNB-75.
For assay [13], the system named is SW-620.
In assay [14] the test system is T47D.
Assay [15] deals with TK-10.
Assay [16] has as its system UO-31.
The test system of assay [17] is SF-295.
Assay [18] concerns SK-MEL-2.
Assay [19] concerns UACC-257.
Assay [20] concerns A498.

Each structure is given as a SMILES string.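 1) Cells in 96-well plates. 2) Compound, 48 h, 5 concentrations. 3) Linear interpolation between surrounding doses. 4) Unreached endpoint = highest concentration. Abbreviation: GI50, concentration required for 50% inhibition of growth.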 Calls of active or inactive are those of the source. Cut-off read from the data, not from the text of the source: active = GI50 up to about 1.1 µM and inactive = higher. A value given as a limit tells only on which side of the number the result lay.

Take `N/C(CSCCSC/C(N)=N/O)=N\O`: the GI50 in assay [1], in assay [2], in [3], in assay [4], in assay [5] and in assay [6] was > 100 µM (inactive) throughout. In addition, the GI50 in [7], in assay [8], in [9], in assay [10], in [11] and in [12] was > 100 µM (inactive) in each case. Further, the GI50 in [13], in [14], in [15] and in assay [16] was > 100 µM (inactive) in each case.

Consider `Cc1cc2nc3n(c2cc1C)C(c1c(F)cccc1F)SC3` (stereo not drawn), for which the GI50 was 19.4 µM (inactive) in assay [1]; > 10 µM (inactive) in assay [4]; 17.9 µM (inactive) in assay [5]; 16.8 µM (inactive) in assay [6]; 19.2 µM (inactive) in [7]; 20.8 µM (inactive) in assay [8]. Also, the GI50 in assay [9] is 27.6 µM (inactive); in assay [17] it was 22.3 µM (inactive); in [10], 19.9 µM (inactive); in assay [18], 18.5 µM (inactive); in assay [11] it was 11 µM (inactive); in [12], 11.6 µM (inactive). In addition, the GI50 in assay [13] was 21.3 µM (inactive); in [14] it was 57.8 µM (inactive); in assay [15], 46.8 µM (inactive); in [19] it was 30.7 µM (inactive); in assay [16], > 10 µM (inactive).

In the case of `COC(=O)c1ccc(Cc2cc(Cc3ccc(C(=O)OC)cc3)cc(Cc3ccc(C(=O)OC)cc3)c2)cc1`, the GI50 in assay [20], in [2], in [3], in assay [4], in [5] and in assay [6] was > 25 µM (inactive) each time. Moreover, the GI50 in assay [7], in assay [9], in [17], in [10], in assay [18] and in assay [12] was > 25 µM (inactive) in each case. The GI50 in assay [13], in assay [15], in assay [19] and in assay [16] was > 25 µM (inactive) throughout.

Turning to `COc1ccc2c3c1OC1C4(CCC5C(C2)N(CC2CC2)CCC351)OCCO4` (stereo not drawn), the GI50 in assay [1], in [2], in assay [3], in assay [4], in [5] and in assay [6] was > 100 µM (inactive) each time. For the same molecule, the GI50 in assay [7], in assay [8], in assay [9], in assay [17], in [18] and in [11] was > 100 µM (inactive) in each case. In addition, the GI50 in assay [12], in [13], in assay [14], in assay [15], in assay [19] and in [16] was > 100 µM (inactive) each time.

Regarding `c1ccc(C2CC(N3CCOCC3)=Nc3ccccc3N2)cc1` (stereo not drawn), the GI50 in assay [20], in [1], in assay [2], in assay [4], in assay [5] and in assay [6] was > 100 µM (inactive) throughout. In addition, the GI50 in [7] was > 100 µM (inactive); in assay [8], 78.5 µM (inactive); in assay [9] it was > 100 µM (inactive); in assay [17], > 100 µM (inactive); in [10], > 100 µM (inactive); in assay [18], > 100 µM (inactive). Also, the GI50 in [11], in assay [13], in [15], in assay [19] and in assay [16] was > 100 µM (inactive) in each case.

For the molecule `Cc1cccc(Nc2nn3c(=O)c4c5c(sc4nc3s2)CCCC5)c1`, the GI50 in assay [1] is 56.5 µM (inactive); in [2] it was > 100 µM (inactive); in assay [3], 26.4 µM (inactive); in [4], 16.1 µM (inactive); in assay [5] it was 8.09 µM (inactive); in assay [6], 11.1 µM (inactive). Moreover, the GI50 in assay [7] was 87.7 µM (inactive); in assay [8] it was 20.4 µM (inactive); in [9], 3.36 µM (inactive); in assay [17], 3.08 µM (inactive); in assay [10], > 100 µM (inactive); in assay [18] it was > 100 µM (inactive). Moreover, the GI50 is 2.4 µM (inactive) in assay [11]; 23.2 µM (inactive) in assay [12]; 91.2 µM (inactive) in assay [13]; 9.82 µM (inactive) in [14]; 37.7 µM (inactive) in [15]; 21.5 µM (inactive) in assay [19]. For the same molecule, in assay [16], the GI50 is > 100 µM (inactive).

`Cc1ccc2nc(-c3ccc(N4C(=O)C(Cl)C4c4ccc(Cl)cc4)cc3)sc2c1` (stereo not drawn): the GI50 in assay [1] was 7.94 µM (inactive); in assay [2] it was 27.2 µM (inactive); in assay [3] it was 0.137 µM (active); in [4] it was 16.8 µM (inactive); in [5] it was 13.5 µM (inactive); in assay [6], 18.5 µM (inactive). Besides, the GI50 in [7] is 18.4 µM (inactive); in assay [9], 22.8 µM (inactive); in assay [17], 15.1 µM (inactive); in assay [10], 17.5 µM (inactive); in assay [11], 14.2 µM (inactive); in assay [13] it was 21.5 µM (inactive). Also, the GI50 is 27.8 µM (inactive) in assay [14], 16.4 µM (inactive) in assay [15], 25.1 µM (inactive) in [19] and 21.4 µM (inactive) in assay [16].

For the molecule `CC(=O)O[C@H]1C(=O)[C@@]2(C)[C@H]([C@H](OC(=O)c3ccco3)[C@]3(O)C[C@H](OC(=O)[C@H](O)[C@@H](NC(=O)c4ccccc4)c4ccccc4)C(C)=C1C3(C)C)[C@]1(OC(C)=O)CO[C@@H]1C[C@@H]2O`, the GI50 is 3.81 µM (inactive) in [20]; 0.05 µM (active) in assay [1]; 0.676 µM (active) in assay [2]; 0.0834 µM (active) in assay [4]; 4.58 µM (inactive) in [5]; > 25 µM (inactive) in [6]. Also, the GI50 in assay [7] is 0.333 µM (active); in assay [8] it was 0.681 µM (active); in assay [9], 0.185 µM (active); in [17], 1.45 µM (inactive); in assay [10], 0.0356 µM (active); in assay [18], 0.0594 µM (active). Also, the GI50 in [11] was 0.116 µM (active); in [12], 0.134 µM (active); in assay [13], 0.146 µM (active); in assay [15], 8.41 µM (inactive); in [19], 0.42 µM (active); in assay [16], > 18.3 µM (inactive).

With `N#Cc1[nH]c(=S)[nH]c1N`, the GI50 in [20], in [1], in assay [2], in assay [3], in assay [6] and in assay [7] was > 100 µM (inactive) throughout. The GI50 in assay [8], in assay [9], in [17], in [10], in assay [18] and in [11] was > 100 µM (inactive) each time. In addition, the GI50 in assay [12], in assay [13], in assay [15], in [19] and in [16] was > 100 µM (inactive) in each case.

For `Cc1ccccc1NC(=O)C(=O)CC(=O)c1sc(Nc2ccccc2[N+](=O)[O-])nc1C`, the GI50 in assay [2] was 50 µM (inactive); in assay [3] it was 29.3 µM (inactive); in assay [4] it was 47.5 µM (inactive); in [5], 17.3 µM (inactive); in assay [6], 41.2 µM (inactive); in assay [7], 90.2 µM (inactive). Moreover, the GI50 in [8] was 26.4 µM (inactive); in [9], 38.5 µM (inactive); in [17], 22.5 µM (inactive); in [10], 29.9 µM (inactive); in assay [18], 56.6 µM (inactive); in assay [11], 27.8 µM (inactive). Also, the GI50 in [13] is 36.1 µM (inactive); in [14] it was 27.2 µM (inactive); in assay [15], 25.7 µM (inactive); in assay [19] it was 29.9 µM (inactive); in assay [16] it was 10.4 µM (inactive).

Regarding `O=C(O)Cc1cccc2c1OC(c1ccccc1)C(C(=O)c1ccccc1)C2=O` (stereo not drawn), the GI50 is 41.2 µM (inactive) in assay [1]; 69 µM (inactive) in [2]; 25.6 µM (inactive) in assay [4]; 32.7 µM (inactive) in [5]; > 100 µM (inactive) in assay [6]; > 100 µM (inactive) in assay [7]. In addition, the GI50 in [8] is > 100 µM (inactive); in assay [9], 44 µM (inactive); in [17], 37.4 µM (inactive); in [10], 51.5 µM (inactive); in assay [11] it was > 100 µM (inactive); in assay [12], 12.2 µM (inactive). For the same molecule, the GI50 in [13] is 37.8 µM (inactive); in assay [14], 10.1 µM (inactive); in assay [15] it was 26.5 µM (inactive); in assay [19], > 100 µM (inactive); in assay [16] it was 88.9 µM (inactive).
